Assay results as given in patent publication US20030186892A1, “Enhancement of endogenous gonadotropin production” (priority 2002, published 2003).

Key:
testosterone = conditions: 5 mg b.i.d. (Group B) compared with 10 mg q.d. (Group C), oral
Description: Twenty subjects were assigned to each dosing group. Dosing groups were dosed sequentially, beginning with 5 mg q.d. group (Group A). Dosing for the 5 mg b.i.d. group (Group B) commenced 2 weeks after the initiation of Group A and the dosing for the 10 mg q.d. group (Group C) began 2 weeks after initiation of the 5 mg b.i.d. group. […] For all measurements, the final value obtained before the start of the study drug administration was used as the baseline value for that variable.

[1] = in vivo
Description: A study was conducted to determine the bioavailability of leuprolide acetate when it was administered by the sublingual route. The study was conducted in fifteen healthy postmenopausal or surgically sterilized female volunteers. This study was conducted according to a single-dose, fasting, four-period, open-label, randomized design. […] 4.5 mg or a 1 mg subcutaneous dose. […] Five-ml plasma samples were collected by venipuncture prior to the study and at suitable time intervals after dosing. Plasma leuprolide acetate concentrations data was tabulated and the descriptive statistics were computed.

Administered sublingual dose absorbed compared to subcutaneous reference [1]: Approximately 1%
SMILES: CCNC(=O)[C@@H]1CCCN1C(=O)[C@H](CCCNC(=N)N)NC(=O)[C@H](CC(C)C)NC(=O)[C@@H](CC(C)C)NC(=O)[C@H](Cc1ccc(O)cc1)NC(=O)[C@H](CO)NC(=O)[C@H](Cc1c[nH]c2ccccc12)NC(=O)[C@H](Cc1c[nH]cn1)NC(=O)[C@@H]1CCC(=O)N1 [leuprolide acetate]
Elevation of plasma testosterone, comparison of regimens (testosterone): more significant elevation of plasma testosterone
